Results on nine compounds are retold here after US12384808B2, “Modulators of TNF-α activity” (Forward Therapeutics, Inc., priority 2022, dated 2025).

pIC50: −log10 of the molar value.

Sequence of TNFα (P01375 77-233 limits assumed): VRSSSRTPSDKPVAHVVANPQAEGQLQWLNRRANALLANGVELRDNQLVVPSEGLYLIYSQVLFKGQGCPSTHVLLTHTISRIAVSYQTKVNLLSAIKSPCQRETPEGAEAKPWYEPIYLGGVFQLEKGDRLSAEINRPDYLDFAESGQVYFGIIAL

In this test the target is TNFα (Homo sapiens, UniProt P01375). The experiment in a line: TNFα Induced HEK Blue Cellular Assay. Conditions: HEK Blue TNFα reporter cells, TNFα 100 pg/ml, 24 hrs at 37° C., secreted alkaline phosphatase (QUANTI-Blue) read at 620 nm; read-out: IC50 value. Format: cell-based. The protocol:
TNFα Induced HEK Blue Cellular Assay
Test articles were diluted in DMSO and serially diluted into 384 well assay plate (Corning 3765), at final concentrations ranging from […] to 0.5 nM. HEK Blue™ TNFα reporter cells were added at a final density of 10,000 cell per well in assay media [DMEM (Gibco, cat #21063-029), 10% fetal bovine serum (ExcelBio, cat #FND500), 1% Penicillin-Streptomycin (Solarbio, cat #P1400-100]. TNFα (R&D 210-TA-020/CF) was then added to the assay plate at a final concentration of 100 pg/ml. This plate was then incubated for 24 hrs at 37° C. and 5% CO2. Secreted alkaline phosphatase expression was then measured using QUANTI-Blue™ (Invivogen), according to manufacturer instructions and read on an Envision microplate reader at 620 nm.
Inhibition data for test compound over a range of concentration was plotted as percentage inhibition of the test compound (100%=maximum inhibition). IC50 values were determined after correcting for background [(sample read−mean of low control)/(mean of high control−mean of low control)] where by the low control is DMSO without stimulation and high control is DMSO with stimulation. The IC50 is defined as the concentration of test compound which produces 50% inhibition and was quantified using the 4 parameter logistic equation to fit the data.
Broadly, the pIC50 is the IC50 on a negative log10 scale, so that one unit is a factor of ten. In the case of `CN1C(=O)c2cccc(OC(F)F)c2[C@H]2C[C@@H]1c1nc3ccc(-c4ccc(OCP(C)(C)=O)nc4)cc3n12` [Example 7, (1R,11R)-18-(difluoromethoxy)-5-{6-[(dimethylphosphoryl)methoxy]pyridin-3-yl}-12-methyl-2,9,12-triazapentacyclo[9.8.1.0^{2,10}.0^{3,8}.0^{14,19}]icosa-3(8),4,6,9,14(19),15,17-heptaen-13-one], the pIC50 was greater than 7.00.
Under `CN1C(=O)c2cccc(OC(F)F)c2[C@H]2C[C@@H]1c1nc3ccc(-c4cnc(P(C)(C)=O)nc4)cc3n12` [Example 8, (1R,11R)-18-(difluoromethoxy)-5-[2-(dimethylphosphoryl)pyrimidin-5-yl]-12-methyl-2,9,12-triazapentacyclo[9.8.1.0^{2,10}.0^{3,8}.0^{14,19}]icosa-3(8),4,6,9,14(19),15,17-heptaen-13-one] stands 6.00 to 7.00; under `CN1C(=O)c2cccc(OC(F)F)c2[C@H]2C[C@@H]1c1nc3ccc(-c4cnc(OCP(C)(C)=O)nc4)cc3n12` [Example 9, (1R,11R)-18-(difluoromethoxy)-5-{2-[(dimethylphosphoryl)methoxy]pyrimidin-5-yl}-12-methyl-2,9,12-triazapentacyclo[9.8.1.0^{2,10}.0^{3,8}.0^{14,19}]icosa-3(8),4,6,9,14(19),15,17-heptaen-13-one], 6.00 to 7.00; under `CN1C(=O)c2cccc(OC(F)F)c2[C@H]2C[C@@H]1c1nc3ccc(-c4cnc(OCP(C)(C)=O)c(F)c4)cc3n12` [Example 10, (1R,11R)-18-(difluoromethoxy)-5-{6-[(dimethylphosphoryl)methoxy]-5-fluoropyridin-3-yl}-12-methyl-2,9,12-triazapentacyclo [9.8.1.0^{2,10}.0^{3,8}.0^{14,19}]icosa-3(8),4,6,9,14(19),15,17-heptaen-13-one], greater than 7.00.
Under `CP(C)(=O)COc1ccc(-c2ccc3nc4n(c3c2)[C@@H]2C[C@H]4NC(=O)c3cccc(OC(F)F)c32)cn1` [Example 11, (1R,11R)-18-(difluoromethoxy)-5-{6-[(dimethylphosphoryl)methoxy]pyridin-3-yl}-2,9,12-triazapentacyclo[9.8.1.0^{2,10}.0^{3,8}.0^{14,19}]icosa-3(8),4,6,9,14(19),15,17-heptaen-13-one] stands 5.00 to 6.00; under `CP(C)(=O)COc1ncc(-c2ccc3nc4n(c3c2)[C@@H]2C[C@H]4NC(=O)c3cccc(OC(F)F)c32)cn1` [Example 12, (1R,11R)-18-(difluoromethoxy)-5-(2-[(dimethylphosphoryl)methoxy]pyrimidin-5-yl)-2,9,12-triazapentacyclo[9.8.1.0^{2,10}.0^{3,8}.0^{14,19}]icosa-3(8),4,6,9,14(19),15,17-heptaen-13-one], 5.00 to 6.00.
As for `CN1C(=O)c2cccc(OC(F)F)c2[C@H]2C[C@@H]1c1nc3ccc(-c4ccc(P(C)(C)=O)cc4)cc3n12` [Example 13, (1R,11R)-18-(difluoromethoxy)-5-[4-(dimethylphosphoryl)phenyl]-12-methyl-2,9,12-triazapentacyclo[9.8.1.0^{2,10}.0^{3,8}.0^{14,19}]icosa-3(8),4,6,9,14(19),15,17-heptaen-13-one], the negative-log IC50 (pIC50) was greater than 7.00.
With `CN1C(=O)c2cccc(OC(F)F)c2[C@H]2C[C@@H]1c1nc3ccc(-c4ccc(P(C)(C)=O)c(F)c4)cc3n12` [Example 14, (1R,11R)-18-(difluoromethoxy)-5-[4-(dimethylphosphoryl)-3-fluorophenyl]-12-methyl-2,9,12-triazapentacyclo[9.8.1.0^{2,10}.0^{3,8}.0^{14,19}]icosa-3(8),4,6,9,14(19),15,17-heptaen-13-one], the pIC50 was greater than 7.00.
Then `[2H]C([2H])([2H])N1C(=O)c2cccc(OC(F)F)c2[C@H]2C[C@@H]1c1nc3ccc(-c4ccc(OCP(C)(C)=O)nc4)cc3n12` [Example 15, (7R,14R)-1-(difluoromethoxy)-11-(6-((dimethylphosphoryl)methoxy)pyridin-3-yl)-6-(methyl-d3)-6,7-dihydro-7,14-methanobenzo[f]benzo[4,5]imidazo[1,2-a][1,4]diazocin-5(14H)-one], with greater than 7.00.
